Results taken from patent US20140263071A1, “METHOD FOR COLLECTING METALS” (CHEMEC OY AB, priority 2011, published 2014).
Marks after values point to notes of the source that are not given here.

What was measured:
[1] = Effect of contact time on expulsion percent, Pb^2+ and Hg^2+ spiked TS 5, 1a 100 mg/100 ml (Example 13)
Method: A test solution containing 1-15 mg/l of Al^3+, Fe^2/3+, Mg^2+, Mn^2+, Ni^2+ and Zn^2+; 0.1-0.9 mg/l of Ca^2+ and Na^+; and trace amount of other Cr^3+, Co^2+, Cu^2+, Eu^3+, La^3+, Nd^3+, Y^3+, UO2^2+ and Nb^5+ cations were prepared.
Effect of contact time to selected metal expulsion per cents was tested using TS 5 with comlexation agent 1a. TS 5 (100 ml), spiked with known amounts of lead (Pb^2+) and mercury (Hg^2+) cations, was stirred with 1a (100 mg) for selected times followed by separation of 1a by filtration trough 0.2 μm syringe filter. Metal concentrations after 5 min, 15 min, 30 min, 1 h, 2 h, 3.5 h, 6.5 h and 29.5 h were determined by using ICP-AES analysis.

[2] = Drilled well water softening and purification (Example 15)
Method: Drilled well sample 1 (DW 1) was nearby Tampere and sample 2 (DW 2) nearby Turku. Samples (100 ml each) were stirred with 1a (1.0 g) for 24 h. The initial and final metal concentrations in solutions of selected metals were determined by using ICP-AES analysis after filtration and results are shown in Table 9.

[3] = Purification of waste water containing heavy metals, TS 2 (Example 17)
Method: Waste water sample from dumping site containing some heavy metals: ca. 2 g/l of Ca^2+; […] of As^3+ (or As^5+), Cr^3+, Fe^2/3+, Pb^2+, Sr^2+, Zn^2+ and Hg^2+; pH 3.56.
TS 2 (100 ml), which initial metal cation concentrations were determined by AAS and ICP-AES methods, was treated with 1a (1.0 g) with stirring for 24 h. After filtration trough 0.2 μm syringe filter metal concentrations in solution were determined.

## NCCCCCCCCCCC(O)(P(=O)(O)O)P(=O)(O)O [Compound 1a, 11-Amino-1-hydroxyundecane-1,1-diyldiphosphonic acid]
[1]; Al^3+, 5 min
  Expulsion [%]: 8.3%
[1]; Al^3+, 15 min
  Expulsion [%]: 5.5%
[1]; Al^3+, 30 min
  Expulsion [%]: 7.1%
[1]; Al^3+, 60 min
  Expulsion [%]: 5.9%
[1]; Al^3+, 120 min
  Expulsion [%]: 8.7%
[1]; Al^3+, 210 min
  Expulsion [%]: 18.5%
[1]; Al^3+, 390 min
  Expulsion [%]: 26.0%
[1]; Al^3+, 1770 min
  Expulsion [%]: 27.2%
[1]; Ca^2+, 5 min
  Expulsion [%]: 2.7%
[1]; Ca^2+, 15 min
  Expulsion [%]: 0%
[1]; Ca^2+, 30 min
  Expulsion [%]: 0%
[1]; Ca^2+, 60 min
  Expulsion [%]: 0%
[1]; Ca^2+, 120 min
  Expulsion [%]: 0%
[1]; Ca^2+, 210 min
  Expulsion [%]: 0%
[1]; Ca^2+, 390 min
  Expulsion [%]: 9.8%
[1]; Ca^2+, 1770 min
  Expulsion [%]: 18.7%
[1]; Cd^2+, 5 min
  Expulsion [%]: 2.9%
[1]; Cd^2+, 15 min
  Expulsion [%]: 3.9%
[1]; Cd^2+, 30 min
  Expulsion [%]: 5.1%
[1]; Cd^2+, 60 min
  Expulsion [%]: 7.5%
[1]; Cd^2+, 120 min
  Expulsion [%]: 10.9%
[1]; Cd^2+, 210 min
  Expulsion [%]: 15.0%
[1]; Cd^2+, 390 min
  Expulsion [%]: 28.1%
[1]; Cd^2+, 1770 min
  Expulsion [%]: 36.6%
[1]; Fe^2/3+, 5 min
  Expulsion [%]: 0%
[1]; Fe^2/3+, 15 min
  Expulsion [%]: 0.7%
[1]; Fe^2/3+, 30 min
  Expulsion [%]: 0%
[1]; Fe^2/3+, 60 min
  Expulsion [%]: 3.0%
[1]; Fe^2/3+, 120 min
  Expulsion [%]: 6.7%
[1]; Fe^2/3+, 210 min
  Expulsion [%]: 8.9%
[1]; Fe^2/3+, 390 min
  Expulsion [%]: 20.7%
[1]; Fe^2/3+, 1770 min
  Expulsion [%]: 19.3%
[1]; Hg^2+, 5 min
  Expulsion [%]: 59.9%
[1]; Hg^2+, 15 min
  Expulsion [%]: 60.4%
[1]; Hg^2+, 30 min
  Expulsion [%]: 58.5%
[1]; Hg^2+, 60 min
  Expulsion [%]: 56.4%
[1]; Hg^2+, 120 min
  Expulsion [%]: 57.1%
[1]; Hg^2+, 210 min
  Expulsion [%]: 55.7%
[1]; Hg^2+, 390 min
  Expulsion [%]: 57.0%
[1]; Hg^2+, 1770 min
  Expulsion [%]: 49.6%
[1]; Mg^2+, 5 min
  Expulsion [%]: 1.4%
[1]; Mg^2+, 15 min
  Expulsion [%]: 1.8%
[1]; Mg^2+, 30 min
  Expulsion [%]: 0.2%
[1]; Mg^2+, 60 min
  Expulsion [%]: 4.4%
[1]; Mg^2+, 120 min
  Expulsion [%]: 5.8%
[1]; Mg^2+, 210 min
  Expulsion [%]: 6.9%
[1]; Mg^2+, 390 min
  Expulsion [%]: 16.4%
[1]; Mg^2+, 1770 min
  Expulsion [%]: 19.8%
[1]; Mn^2+, 5 min
  Expulsion [%]: 3.4%
[1]; Mn^2+, 15 min
  Expulsion [%]: 4.3%
[1]; Mn^2+, 30 min
  Expulsion [%]: 4.3%
[1]; Mn^2+, 60 min
  Expulsion [%]: 6.3%
[1]; Mn^2+, 120 min
  Expulsion [%]: 10.5%
[1]; Mn^2+, 210 min
  Expulsion [%]: 13.1%
[1]; Mn^2+, 390 min
  Expulsion [%]: 27.0%
[1]; Mn^2+, 1770 min
  Expulsion [%]: 29.1%
[1]; Ni^2+, 5 min
  Expulsion [%]: 1.4%
[1]; Ni^2+, 15 min
  Expulsion [%]: 1.8%
[1]; Ni^2+, 30 min
  Expulsion [%]: 1.4%
[1]; Ni^2+, 60 min
  Expulsion [%]: 4.1%
[1]; Ni^2+, 120 min
  Expulsion [%]: 5.0%
[1]; Ni^2+, 210 min
  Expulsion [%]: 7.8%
[1]; Ni^2+, 390 min
  Expulsion [%]: 13.2%
[1]; Ni^2+, 1770 min
  Expulsion [%]: 15.5%
[1]; Pb^2+, 5 min
  Expulsion [%]: 28.5%
[1]; Pb^2+, 15 min
  Expulsion [%]: 34.7%
[1]; Pb^2+, 30 min
  Expulsion [%]: 56.3%
[1]; Pb^2+, 60 min
  Expulsion [%]: 49.4%
[1]; Pb^2+, 120 min
  Expulsion [%]: 65.7%
[1]; Pb^2+, 210 min
  Expulsion [%]: 89.8%
[1]; Pb^2+, 390 min
  Expulsion [%]: 94.6%
[1]; Pb^2+, 1770 min
  Expulsion [%]: 98.1%
[1]; Zn^2+, 5 min
  Expulsion [%]: 2.5%
[1]; Zn^2+, 15 min
  Expulsion [%]: 3.7%
[1]; Zn^2+, 30 min
  Expulsion [%]: 4.9%
[1]; Zn^2+, 60 min
  Expulsion [%]: 6.5%
[1]; Zn^2+, 120 min
  Expulsion [%]: 9.8%
[1]; Zn^2+, 210 min
  Expulsion [%]: 13.9%
[1]; Zn^2+, 390 min
  Expulsion [%]: 27.1%
[1]; Zn^2+, 1770 min
  Expulsion [%]: 30.8%
[2]; DW 1 (pH 7.04), Al^3+, initial <0.05 mg/l
  Concentration after 1a: <0.05 mg/L
[2]; DW 1 (pH 7.04), Ca^2+, initial 43.8 mg/l
  Concentration after 1a: 0.232 mg/L
[2]; DW 1 (pH 7.04), Cu^2+, initial <0.05 mg/l
  Concentration after 1a: <0.05 mg/L
[2]; DW 1 (pH 7.04), Mg^2+, initial 10.9 mg/l
  Concentration after 1a: <0.1^4) mg/l
[2]; DW 1 (pH 7.04), Mn^2+, initial 0.095 mg/l
  Concentration after 1a: <0.02^4) mg/l
[2]; DW 1 (pH 7.04), Na^+, initial 15.2 mg/l
  Concentration after 1a: 13.5 mg/L
[2]; DW 1 (pH 7.04), Sr^2+, initial 0.097 mg/l
  Concentration after 1a: <0.02^4) mg/l
[2]; DW 1 (pH 7.04), Zn^2+, initial 0.044 mg/l
  Concentration after 1a: 0.018 mg/L
[2]; DW 1, Ca^2+
  Expulsion [%]: 99%
[2]; DW 1, Mg^2+
  Expulsion [%]: ≥ 99^5) %
[2]; DW 1, Mn^2+
  Expulsion [%]: ≥ 79^5) %
[2]; DW 1, Na^+
  Expulsion [%]: 11%
[2]; DW 1, Sr^2+
  Expulsion [%]: ≥ 79^5) %
[2]; DW 1, Zn^2+
  Expulsion [%]: ≥ 59^5) %
[2]; DW 2 (pH 6.97), Al^3+, initial 0.107 mg/l
  Concentration after 1a: <0.05^4) mg/l
[2]; DW 2 (pH 6.97), Ca^2+, initial 22.2 mg/l
  Concentration after 1a: 0.479 mg/L
[2]; DW 2 (pH 6.97), Cu^2+, initial 0.271 mg/l
  Concentration after 1a: <0.05^4) mg/l
[2]; DW 2 (pH 6.97), Mg^2+, initial 13.60 mg/l
  Concentration after 1a: 0.102 mg/L
[2]; DW 2 (pH 6.97), Mn^2+, initial <0.02 mg/l
  Concentration after 1a: <0.02 mg/L
[2]; DW 2 (pH 6.97), Na^+, initial 19.0 mg/l
  Concentration after 1a: 17.3 mg/L
[2]; DW 2 (pH 6.97), Sr^2+, initial 0.113 mg/l
  Concentration after 1a: 0.029 mg/L
[2]; DW 2 (pH 6.97), Zn^2+, initial 0.284 mg/l
  Concentration after 1a: 0.026 mg/L
[2]; DW 2, Al^3+
  Expulsion [%]: ≥ 53^5) %
[2]; DW 2, Ca^2+
  Expulsion [%]: 98%
[2]; DW 2, Cu^2+
  Expulsion [%]: ≥ 82^5) %
[2]; DW 2, Mg^2+
  Expulsion [%]: 99%
[2]; DW 2, Na^+
  Expulsion [%]: 9%
[2]; DW 2, Sr^2+
  Expulsion [%]: 74%
[2]; DW 2, Zn^2+
  Expulsion [%]: 91%
[3]; As^3/5+
  Expulsion [%]: ≥ 61.7^2) %
[3]; Ca^2+
  Expulsion [%]: 75.4%
[3]; Cd^2+
  Expulsion [%]: ≥ 89.4^5) %
[3]; Cr^3+
  Expulsion [%]: 23.9%
[3]; Fe^2/3+
  Expulsion [%]: 22.8%
[3]; Hg^1/2+ (CVAAS)
  Expulsion [%]: 99.0^1) %
[3]; Pb^2+
  Expulsion [%]: ≥ 68.9^5) %
[3]; Sr^2+
  Expulsion [%]: 84.3%
[3]; Zn^2+
  Expulsion [%]: 76.8%
